Marks after values point to notes of the source that are not given here.
Tested on: T-iPS-T cells
Experiment: Number of viable T-iPS-T cells under feeder-free culture (CD3/CD28 Dynabeads, Cell Count Reagent SF, absorbance 450 nm/650 nm)
Format: cell-based, human
Details: T-iPS-T cells after 1st expansion, 6 days, DMSO control 0.225 ± 0.017
Protocol: T-iPS-T cells (1,500 cells/well) after 1st expansion were seeded and cultured in RPMI-1640 medium (SIGMA, R8758) supplemented with 15% FBS (CORNING, 35-076-CV, 35076104R), 1% PSG (SIGMA, G1146), PAA (50 μg/mL, Nacalai Tesque, 03420-52), ITS-G, IL-7 (5 ng/mL), IL-12 (50 ng/mL), IL-15 (5 ng/mL), IL-18 (50 ng/mL), IL-21 (20 ng/mL), and z-VAD-fmk (10 μM). The cells were stimulated by adding CD3/CD28 Dynabeads (Gibco, 11131D, the “Dynabeads” is a registered trademark) (4,500 beads/well) thereto, and 1,080 compounds [MedChemExpress, Apoptosis Compound Library (HY-L003), Cell Cycle/DNA Damage Compound Library (HY-L004), JAK/STAT Compound Library (HY-L008), MAPK Compound Library (HY-L010), NF-kappaB Compound Library (HY-L014), PI3K/Akt/mTOR Compound Library (HY-L015), and Wnt/Hedgehog/Notch Compound Library (HY-L020)] were added thereto (one type per well) at a final concentration of 1 μM, and then, the cells were cultured at 37° C. under 5% CO2.
DMSO (0.1%) that is a solvent for the compound was used as a control. After 6 days, the number of viable cells was measured using Cell Count Reagent SF (Nacalai Tesque, 07553) and a microplate reader (SoftMax Pro 5.X, Molecular Devices, 450 nm/650 nm).
A calibration curve for cell number was set as follows. When measuring the number of viable cells, 12-point serial dilution was performed for the same cells as those used in the screening, and the cells were seeded (0 to 1,536,000 cells/well) in RPMI-1640 medium supplemented with 15% FBS, 1% PSG, PAA, ITS-G, IL-7 (5 ng/mL) and IL-15 (5 ng/mL). The number of viable cells was measured together with the screening samples, and a calibration curve for WST-8 assay was formed.
In order to further evaluate the results obtained in Example 4, reproducibility was evaluated. As a method therefor, the same method as in Example 4 was used to carry out culturing and evaluation. As compounds, 20 compounds were selected and used among the compounds used in Example 4 including berbamine, and DMSO (0.1%) that is a solvent for the compound was used as a control. Note that in a statistical analysis, a Student's t-test was used (*: p<0.05).
The effect of a berbamine derivative on the proliferation of T cells was verified. As a method therefor, T-iPS-T cells after 1st expansion were cultured in the same manner as in Example 4, and berbamine (BBM) or each of 13 types of derivatives [BBMD1 to 13, Hebei Sundia MediTech Company Ltd.] was added thereto (one type per well) at a final concentration of 0.1 nM, 1 nM, 10 nM, 100 nM, or 1 μM, and then, the cells were cultured at 37° C. under 5% CO2. DMSO (0.1%) that is a solvent for the compound was used as a control.
After culturing for 6 days, the number of viable cells was measured using Cell Count Reagent SF (Nacalai Tesque, 07553) and a microplate reader (SoftMax Pro 5. X, Molecular Devices, 450 nm/650 nm), and the OD value was used as data. Note that in a statistical analysis, a Student's t-test was used (*: p<0.05). 1.

| SMILES | number of viable cells (OD value) (0.1 nM) | number of viable cells (OD value) (1 nM) | number of viable cells (OD value) (10 nM) | number of viable cells (OD value) (100 nM) | number of viable cells (OD value) (1 μM) |
| --- | --- | --- | --- | --- | --- |
| COc1cc2c3cc1Oc1c(OC)c(OC)cc4c1C(Cc1ccc(OS(=O)(=O)c5ccccc5)c(c1)Oc1ccc(cc1)CC3N(C)CC2)N(C)CC4 (stereo not shown) [BBMD1] | 0.257 ± 0.024 | 0.268 ± 0.009 * | 0.289 ± 0.033 * | 0.415 ± 0.039 ** | 0.529 ± 0.101 ** |
| COc1cc2c3cc1Oc1c(OC)c(OC)cc4c1C(Cc1ccc(CCCCBr)c(c1)Oc1ccc(cc1)CC3N(C)CC2)N(C)CC4 (stereo not shown) [BBMD2] | – | 0.269 ± 0.059 | 0.295 ± 0.028 * | 0.437 ± 0.059 ** | 0.493 ± 0.036 *** |
| COc1cc2c3cc1Oc1c(OC)c(OC)cc4c1C(Cc1ccc(OCc5ccc([N+](=O)[O-])cc5)c(c1)Oc1ccc(cc1)CC3N(C)CC2)N(C)CC4 (stereo not shown) [BBMD3] | 0.245 ± 0.013 | 0.298 ± 0.021 * | 0.325 ± 0.077^ | 0.581 ± 0.025 **** | 0.195 ± 0.002 |
| COc1cc2c3cc1Oc1c(OC)c(OC)cc4c1C(Cc1ccc(OC(=O)C(C)(C)C)c(c1)Oc1ccc(cc1)CC3N(C)CC2)N(C)CC4 (stereo not shown) [BBMD4] | 0.234 ± 0.024 | 0.245 ± 0.037 | 0.286 ± 0.019 * | 0.470 ± 0.023 *** | 0.470 ± 0.053 ** |
| COc1cc2c3cc1Oc1c(OC)c(OC)cc4c1C(Cc1ccc(OC(=O)c5cc6ccccc6[nH]5)c(c1)Oc1ccc(cc1)CC3N(C)CC2)N(C)CC4 (stereo not shown) [BBMD5] | 0.246 ± 0.001 | 0.245 ± 0.016 | 0.285 ± 0.032 * | 0.477 ± 0.064 ** | 0.186 ± 0.001 |
| COc1cc2c3cc1Oc1c(OC)c(OC)cc4c1C(Cc1ccc(OC(=O)c5ccc(Br)cc5)c(c1)Oc1ccc(cc1)CC3N(C)CC2)N(C)CC4 (stereo not shown) [BBMD6] | 0.248 ± 0.019 | 0.248 ± 0.016 | 0.290 ± 0.023 * | 0.472 ± 0.077 ** | 0.208 ± 0.004 |
| COc1cc2c3cc1Oc1c(OC)c(OC)cc4c1C(Cc1ccc(CCCCN5CCCC5)c(c1)Oc1ccc(cc1)CC3N(C)CC2)N(C)CC4 (stereo not shown) [BBMD7] | 0.230 ± 0.018 | 0.266 ± 0.013 * | 0.258 ± 0.024^ | 0.346 ± 0.041 ** | 0.550 ± 0.026 **** |
| COc1cc2c3cc1Oc1c(OC)c(OC)cc4c1C(Cc1ccc(OC(=O)CCNC(=O)OC(C)(C)C)c(c1)Oc1ccc(cc1)CC3N(C)CC2)N(C)CC4 (stereo not shown) [BBMD8] | 0.268 ± 0.022 * | 0.227 ± 0.028 | 0.261 ± 0.029^ | 0.326 ± 0.051 * | 0.462 ± 0.027 *** |
| COc1cc2c3cc1Oc1c(OC)c(OC)cc4c1C(Cc1ccc(OCCCN)c(c1)Oc1ccc(cc1)CC3N(C)CC2)N(C)CC4 (stereo not shown) [BBMD9] | 0.264 ± 0.030 | 0.255 ± 0.004 * | 0.221 ± 0.017^ | 0.268 ± 0.020 * | 0.328 ± 0.016** |
| COc1ccc(C(=O)NCCCOc2ccc3cc2Oc2ccc(cc2)CC2c4cc(c(OC)cc4CCN2C)Oc2c(OC)c(OC)cc4c2C(C3)N(C)CC4)cc1 (stereo not shown) [BBMD10] | 0.255 ± 0.013 | 0.274 ± 0.007 ** | 0.295 ± 0.023 * | 0.494 ± 0.038 *** | 0.301 ± 0.008 ** |
| COc1cc2c3cc1Oc1c(OC)c(OC)cc4c1C(Cc1ccc(OCCCNC(=O)c5ccc(-c6ccc(C=O)cc6)cc5)c(c1)Oc1ccc(cc1)CC3N(C)CC2)N(C)CC4 (stereo not shown) [BBMD11] | 0.270 ± 0.099 | 0.242 ± 0.046 | 0.300 ± 0.081^ | 0.425 ± 0.079 * | 0.239 ± 0.076 |
| COc1cc2c3cc1Oc1c(OC)c(OC)cc4c1C(Cc1ccc(OCCCNC(=O)c5cscn5)c(c1)Oc1ccc(cc1)CC3N(C)CC2)N(C)CC4 (stereo not shown) [BBMD12] | 0.185 ± 0.072 | 0.234 ± 0.027 | 0.235 ± 0.010^ | 0.257 ± 0.008 * | 0.561 ± 0.035 *** |
| COc1cc2c3cc1Oc1c(OC)c(OC)cc4c1C(Cc1ccc(OC(=O)c5ccccc5)c(c1)Oc1ccc(cc1)CC3N(C)CC2)N(C)CC4 (stereo not shown) [BBMD13] | 0.253 ± 0.022 | 0.292 ± 0.001 ** | 0.260 ± 0.011 * | 0.412 ± 0.085 * | 0.288 ± 0.041 |

From patent US12168781B2, “Production method for T cells or NK cells, medium for culturing T cells or NK cells, method for culturing T cells or NK cells, method for maintaining undifferentiated state of undifferentiated T cells, and growth-accelerating agent for T cells or NK cells” (KIRIN HOLDINGS KABUSHIKI KAISHA, priority 2018, dated 2024)
